molecular target: [35S]-TBPS binding, rat brain cortical membranes; test: Steroid inhibition of TBPS binding ([35S]-TBPS radioligand displacement); conditions: 3 nM [35S]-TBPS, 5 μM GABA
Experimental: TBPS binding assays using rat brain cortical membranes in the presence of 5 μM GABA has been described (Gee et al, J. Pharmacol. Exp. Then 1987, 241, 346-353; Hawkinson et al, Mol. Pharmacol. 1994, 46, 977-985; Lewin, A. H et al., Mol. Pharmacol. 1989, 35, 189-194).
Briefly, cortices are rapidly removed following decapitation of carbon dioxide-anesthetized Sprague-Dawley rats (200-250 g). The cortices are homogenized in 10 volumes of […] using a glass/teflon homogenizer and centrifuged at 1500×g for 10 min at 4° C. The resultant supernatants are centrifuged at 10,000×g for 20 min at 4° C. to obtain the P2 pellets. The P2 pellets are resuspended in 200 mM NaCl/50 mM Na—K phosphate pH 7.4 buffer and centrifuged at 10,000×g for 10 min at 4° C. This washing procedure is repeated twice and the pellets are resuspended in 10 volumes of buffer. Aliquots (100 μL) of the membrane suspensions are incubated with 3 nM [^35S]-TBPS and 5 μL aliquots of test drug dissolved in dimethyl sulfoxide (DMSO) (final 0.5%) in the presence of 5 μM GABA. The incubation is brought to a final volume of 1.0 mL with buffer. […] Following a 90 min incubation at room temp, the assays are terminated by filtration through glass fiber filters (Schleicher and Schuell No. 32) using a cell harvester (Braudel) and rinsed three times with ice-cold buffer. Filter bound radioactivity is measured by liquid scintillation spectrometry. Non-linear curve fitting of the overall data for each drug averaged for each concentration is done using Prism (GraphPad).
Various compounds are or can be screened to determine their potential as modulators of [^35S]-TBPS binding in vitro. These assays are or can be performed in accordance with the above discussed procedures.

Q: With `C[C@@]1(O)CC[C@@]2(C)[C@@H](CC[C@@H]3[C@@H]2CC[C@]2(C)[C@@H](C(=O)Cn4ncc5cc(F)ccc54)CC[C@@H]32)C1` [Compound 240] as the molecule, how does the IC50 read?
A: 0.01 to 0.05 µM

molecular target: α1β2γ2 GABAA receptors (Homo sapiens (Human), UniProt P14867+P47870); test: Patch clamp electrophysiology (QPatch) of recombinant α1β2γ2 GABAA receptors in LTK cells; assay type: cell-based; conditions: 10 μM test article, GABA EC20 = 2 μM, read-out: GABA (α1β2γ2) Qpatch in Ltk, % efficacy at 10 μM
Experimental: Cellular electrophysiology is used to measure the pharmacological properties of our GABAA receptor modulators in heterologous cell systems. Each compound is tested for its ability to affect GABA mediated currents at a suhmaximal agonist dose (GABA EC20=2 μM). LTK cells are stably transfected with the α1β2γ2 subunits of the GABA receptor and CHO cells are transiently transfected with the α4β3δ subunits via the Lipofecatamine method. Cells were passaged at a confluence of about 50-80% and then seeded onto 35 mm sterile culture dishes containing 2 ml culture complete medium without antibiotics or antimycotics. Confluent clusters of cells are electrically coupled (Pritchett et al., Science, 1988, 242, 1306-1308). Because responses in distant cells are not adequately voltage clamped and because of uncertainties about the extent of coupling (Verdoom et al., Neuron 1990, 4, 919-928), cells were cultivated at a density that enables the recording of single cells (without visible connections to other cells).
Whole cell currents were measured with HEKA EPC-10 amplifiers using PatchMaster software or by using the high throughput QPatch platform (Sophion). Bath solution for all experiments contained (in mM): NaCl 137 mM, KCl 4 mM, CaCl2 1.8 mM, MgCl2 1 mM, HEPES 10 mM, D-Glucose 10 mM, pH (NaOH) 7.4. In some cases 0.005% cremophor was also added. Intracellular (pipette) solution contained: KCl 130 mM, MgCl2 1 mM, Mg-ATP 5 mM, HEPES 10 mM, EGTA 5 mM, pH 7.2. During experiments, cells and solutions were maintained at room temperature (19° C.-30° C.). For manual patch clamp recordings, cell culture dishes were placed on the dish holder of the microscope and continuously perfused (1 ml/min) with bath solution. After formation of a Gigaohm seal between the patch electrodes and the cell (-ipette resistance range: 2.5 MΩ-6.0 MΩ; seal resistance range:>1 GΩ) the cell membrane across the pipette tip was ruptured to assure electrical access to the cell interior (whole-cell patch-configuration). For experiments using the QPatch system, cells were transferred as suspension to the QPatch system in the bath solution and automated whole cell recordings were performed.
Cells were voltage clamped at a holding potential of −80 mV. For the analysis of test articles, GABA receptors were stimulated by 2 μM GABA after sequential pre-incubation of increasing concentrations of the test article. Pre-incubation duration was 30 s and the duration of the GABA stimulus was 2s. Test articles were dissolved in DMSO to form stock solutions (10 mM). Test articles were diluted to 0.01, 0.1, 1, and 10 μM in bath solution. All concentrations of test articles were tested on each cell. The relative percentage potentiation was defined as the peak amplitude in response to GABA EC20 in the presence of the test article divided by the peak amplitude in response to GABA EC20 alone, multiplied by 100. For Table 2. GABAA receptors α1β2γ2 and α4β3δ% efficacy: “A” 10-100, “B”>100-500, “C”>500; D indicates the data is not available or has not been determined.

Q: With `C[C@@]1(O)CC[C@@]2(C)[C@@H](CC[C@@H]3[C@@H]2CC[C@]2(C)[C@@H](C(=O)Cn4cnc(C#N)c4)CC[C@@H]32)C1` [Compound 154] as the molecule, how does the Emax at 10 µM read?
A: 100 to 500%

Q: With `C[C@@]1(O)CC[C@@]2(C)[C@@H](CC[C@@H]3[C@@H]2CC[C@]2(C)[C@@H](C(=O)Cn4nc5ccc(Cl)c(F)c5n4)CC[C@@H]32)C1` [Compound 112] as the molecule, how does the Emax at 10 µM read?
A: 100 to 500%

Q: `C[C@@]1(O)CC[C@@]2(C)[C@@H](CC[C@@H]3[C@@H]2CC[C@]2(C)[C@@H](C(=O)Cn4nc5cccc(F)c5n4)CC[C@@H]32)C1` [Compound 128] was tested. Which Emax at 10 µM did it give?
A: 100 to 500%

Q: With `CNC(=O)c1cnn(CC(=O)[C@H]2CC[C@H]3[C@@H]4CC[C@@H]5C[C@](C)(O)CC[C@]5(C)[C@H]4CC[C@]23C)c1` [Compound 168] as the molecule, how does the Emax at 10 µM read?
A: 100 to 500%

Q: How did the Emax at 10 µM turn out when `CN(C)C(=O)c1cnn(CC(=O)[C@H]2CC[C@H]3[C@@H]4CC[C@@H]5C[C@](C)(O)CC[C@]5(C)[C@H]4CC[C@]23C)c1` [Compound 169] was run?
A: 100 to 500%

Q: With `COc1cnn(CC(=O)[C@H]2CC[C@H]3[C@@H]4CC[C@@H]5C[C@](C)(O)CC[C@]5(C)[C@H]4CC[C@]23C)c1` [Compound 166] as the molecule, how does the Emax at 10 µM read?
A: 100 to 500%

Q: `CNC(=O)c1cnn(CC(=O)[C@H]2CC[C@H]3[C@@H]4CC[C@H]5C[C@@](O)(COC)CC[C@]5(C)[C@H]4CC[C@]23C)c1` [Compound 161] was tested. Which Emax at 10 µM did it give?
A: 10 to 100%

Q: For `C[C@@]1(O)CC[C@@]2(C)[C@@H](CC[C@@H]3[C@@H]2CC[C@]2(C)[C@@H](C(=O)Cn4cc(C(F)(F)F)cn4)CC[C@@H]32)C1` [Compound 131], which Emax at 10 µM is on record?
A: 100 to 500%

Q: Which Emax at 10 µM does the source give for `CO[C@H]1C[C@@]2(C)[C@@H](CC[C@@H]3[C@@H]2CC[C@]2(C)[C@@H](C(=O)Cn4nccn4)CC[C@@H]32)C[C@]1(C)O` [Compound 42] here?
A: 100 to 500%

Q: How did the Emax at 10 µM turn out when `CO[C@H]1C[C@@]2(C)[C@@H](CC[C@@H]3[C@@H]2CC[C@]2(C)[C@@H](C(=O)Cn4ccnn4)CC[C@@H]32)C[C@@H]1O` [Compound 3] was run?
A: 100 to 500%

Q: `Cc1cnn(CC(=O)[C@H]2CC[C@H]3[C@@H]4CC[C@H]5C[C@](C)(O)CC[C@]5(C)[C@H]4CC[C@]23C)c1` [Compound 130] was tested. Which Emax at 10 µM did it give?
A: 100 to 500%

Q: With `CCOc1cnn(CC(=O)[C@H]2CC[C@H]3[C@@H]4CC[C@@H]5C[C@](C)(O)CC[C@]5(C)[C@H]4CC[C@]23C)c1` [Compound 145] as the molecule, how does the Emax at 10 µM read?
A: > 500%

Q: `CC(C)Oc1cnn(CC(=O)[C@H]2CC[C@H]3[C@@H]4CC[C@@H]5C[C@](C)(O)CC[C@]5(C)[C@H]4CC[C@]23C)c1` [Compound 173] was tested. Which Emax at 10 µM did it give?
A: 100 to 500%

Q: `COc1ccc2nnn(CC(=O)[C@H]3CC[C@H]4[C@@H]5CC[C@H]6C[C@](C)(O)CC[C@]6(C)[C@H]5CC[C@]34C)c2c1` [Compound 126] was tested. Which Emax at 10 µM did it give?
A: 100 to 500%

Q: For `COC[C@@]1(O)CC[C@@]2(C)[C@@H](CC[C@@H]3[C@@H]2CC[C@]2(C)[C@@H](C(=O)Cn4nc5ccc(Cl)cc5n4)CC[C@@H]32)C1` [Compound 165], which Emax at 10 µM is on record?
A: 100 to 500%

Q: How did the Emax at 10 µM turn out when `COc1cnn(CC(=O)[C@H]2CC[C@H]3[C@@H]4CC[C@H]5C[C@](C)(O)CC[C@]5(C)[C@H]4CC[C@]23C)c1` [Compound 148] was run?
A: 100 to 500%

Q: For `CO[C@H]1C[C@@]2(C)[C@@H](CC[C@@H]3[C@@H]2CC[C@]2(C)[C@@H](C(=O)CN4CCOCC4)CC[C@@H]32)C[C@@H]1O` [Compound 1], which Emax at 10 µM is on record?
A: 100 to 500%

Q: `COc1ccc2c(c1)nnn2CC(=O)[C@H]1CC[C@H]2[C@@H]3CC[C@H]4C[C@](C)(O)CC[C@]4(C)[C@H]3CC[C@]12C` [Compound 127] was tested. Which Emax at 10 µM did it give?
A: 100 to 500%

Q: Which Emax at 10 µM does the source give for `Cc1nccn1CC(=O)[C@H]1CC[C@H]2[C@@H]3CC[C@@H]4C[C@](C)(O)CC[C@]4(C)[C@H]3CC[C@]12C` [Compound 174] here?
A: 100 to 500%

Q: Which Emax at 10 µM does the source give for `COC[C@@]1(O)CC[C@@]2(C)[C@@H](CC[C@@H]3[C@@H]2CC[C@]2(C)[C@@H](C(=O)Cn4cc(C(F)(F)F)cn4)CC[C@@H]32)C1` [Compound 140] here?
A: 100 to 500%

Q: With `C[C@@]1(O)CC[C@@]2(C)[C@@H](CC[C@@H]3[C@@H]2CC[C@]2(C)[C@@H](C(=O)Cn4cc(Cl)cn4)CC[C@@H]32)C1` [Compound 137] as the molecule, how does the Emax at 10 µM read?
A: 100 to 500%

Q: Which Emax at 10 µM does the source give for `CCOc1cnn(CC(=O)[C@H]2CC[C@H]3[C@@H]4CC[C@H]5C[C@@](O)(COC)CC[C@]5(C)[C@H]4CC[C@]23C)c1` [Compound 159] here?
A: > 500%

Q: How did the Emax at 10 µM turn out when `Cc1cncn1CC(=O)[C@H]1CC[C@H]2[C@@H]3CC[C@H]4C[C@](C)(O)CC[C@]4(C)[C@H]3CC[C@]12C` [Compound 136] was run?
A: 100 to 500%

Q: Which Emax at 10 µM does the source give for `C[C@@]1(O)CC[C@@]2(C)[C@@H](CC[C@@H]3[C@@H]2CC[C@]2(C)[C@@H](C(=O)Cn4ccnc4C#N)CC[C@@H]32)C1` [Compound 129] here?
A: 100 to 500%

Q: Which Emax at 10 µM does the source give for `COC[C@@]1(O)CC[C@@]2(C)[C@@H](CC[C@@H]3[C@@H]2CC[C@]2(C)[C@@H](C(=O)Cn4cc(OC)cn4)CC[C@@H]32)C1` [Compound 158] here?
A: 100 to 500%

Q: Which Emax at 10 µM does the source give for `C[C@@]1(O)CC[C@@]2(C)[C@H](CC[C@@H]3[C@@H]2CC[C@]2(C)[C@@H](C(=O)Cn4cc(C(N)=O)cn4)CC[C@@H]32)C1` [Compound 167] here?
A: 100 to 500%

Q: Which Emax at 10 µM does the source give for `COc1ccc2nn(CC(=O)[C@H]3CC[C@H]4[C@@H]5CC[C@H]6C[C@](C)(O)CC[C@]6(C)[C@H]5CC[C@]34C)nc2c1` [Compound 125] here?
A: 100 to 500%

Q: For `COC[C@@]1(O)CC[C@@]2(C)[C@@H](CC[C@@H]3[C@@H]2CC[C@]2(C)[C@@H](C(=O)Cn4ccnc4)CC[C@@H]32)C1` [Compound 141], which Emax at 10 µM is on record?
A: > 500%

Q: `COC[C@@]1(O)CC[C@@]2(C)[C@@H](CC[C@@H]3[C@@H]2CC[C@]2(C)[C@@H](C(=O)Cn4cnc(C#N)c4)CC[C@@H]32)C1` [Compound 178] was tested. Which Emax at 10 µM did it give?
A: > 500%

Q: How did the Emax at 10 µM turn out when `C[C@@]1(O)CC[C@@]2(C)[C@@H](CC[C@H]3[C@@H]4CC[C@H](C(=O)Cn5cc(C#N)cn5)[C@@]4(C)CC(=O)[C@@H]32)C1` [Compound 196] was run?
A: 100 to 500%

Q: For `Cc1cn(CC(=O)[C@H]2CC[C@H]3[C@@H]4CC[C@H]5C[C@](C)(O)CC[C@]5(C)[C@H]4CC[C@]23C)cn1` [Compound 135], which Emax at 10 µM is on record?
A: 100 to 500%

Q: `Cc1cn(CC(=O)[C@H]2CC[C@H]3[C@@H]4CC[C@@H]5C[C@](C)(O)CC[C@]5(C)[C@H]4CC[C@]23C)cn1` [Compound 172] was tested. Which Emax at 10 µM did it give?
A: 100 to 500%

Q: With `CC(=O)Nc1cnn(CC(=O)[C@H]2CC[C@H]3[C@@H]4CC[C@@H]5C[C@](C)(O)CC[C@]5(C)[C@H]4CC[C@]23C)c1` [Compound 171] as the molecule, how does the Emax at 10 µM read?
A: 100 to 500%

Q: For `Cc1cnn(CC(=O)[C@H]2CC[C@H]3[C@@H]4CC[C@@H]5C[C@](C)(O)CC[C@]5(C)[C@H]4CC[C@]23C)c1` [Compound 147], which Emax at 10 µM is on record?
A: > 500%

— US11530237B2, “Compositions and methods for treating CNS disorders” (Sage Therapeutics, Inc., priority 2014, dated 2022)
